The record followed here is US20260283977A1, “ADIPOCYTE GROWTH INHIBITOR” (WATANABE OYSTER LABORATORY CO., LTD., priority 2023, published 2026).

Type in all cases: cell-based, mouse
Data set [1] has as its system 3T3-L1 preadipocytes. The data set is described as follows: Number of cells in the differentiation process of 3T3-L1 preadipocytes. Particulars: DHMBA 1 or 10 μM. As to the method:
After the culture, adhering cells were separated from each well by adding an aseptic solution containing 0.05% trypsin and EDTA (0.1 ml per well) in PBS (Thermo Fisher Scientific, Waltham, MA, USA) not containing Ca^2+/Mg^2+ and incubating the cells for two minutes. Afterward, 0.9 ml of DMEM containing 10% FBS was added to each well to prepare cell suspensions. In order to measure the number of living cells, a medium (0.1 ml) containing suspension cells was mixed with 0.1 ml of 0.5% trypan blue staining solution. The living cells were counted under a microscope (Olympus MTV-3) using a cell counter (Line Seiki H-102P, Tokyo, Japan) and a hemocytometer (Sigma-Aldrich, St. Louis, Missouri). Two counts were averaged in each measurement. The number of cells was shown as the number per well of a culture plate. […]
First, to quantify the effect of DHMBA on the number of cells, a vehicle (1% ethanol as the final concentration) or DHMBA (1 or 10 μM) was added to the differentiation-inducing culture fluid on day 0 of differentiation starting culture or after two days. After zero to two days of the differentiation culture or after two to four days of the culture, the number of cells adhered to a culture dish was measured as described in the previous section.

Another data set relates to MAPK. Kind of data set: Western blotting, MAPK level in 3T3-L1 adipocytes. Particulars: DHMBA 10 μM, day 2 to 4 of differentiation; FIG. 7. As for the experimental part:
(§1) 3T3-L1 preadipocytes (1×10^6 cells/100 mm dish used, in 10 ml of culture fluid) were cultured for three days, at which point they reached sub-confluence, in DMEM containing 10% BCS and 1% P/S. Then, the cells were cultured for two days in a DMEM differentiation culture fluid containing 10% FBS, 1% P/S, 0.5 mM IBMX, and 1 μM dexamethasone. […] After the culture, the culture dish was washed three times with cold PBS (10 ml) to eliminate floating cells and dead cells, and adhering cells were scraped using a cell lysis solution containing protease and protein phosphatase inhibitors (Roche Diagnostics, Indianapolis, IN, USA). Next, the cell lysates were centrifuged for 10 minutes at 17,000×g at 4° C. The concentration of proteins in the supernatant was quantified using Bio-Rad Protein Assay Dye (Bio-Rad Laboratories, Inc., Hercules, CA, USA) with bovine serum albumin as a standard. The extracted protein samples were stored at −80° C. until they were used. […]
(§2) After the incubation, the PVDF membrane was incubated at room temperature for 60 minutes in a horseradish peroxidase-conjugated secondary antibody (Santa Cruz Biotechnology, Inc., mouse sc-2005 or rabbit sc-2305; 1:1,000 dilution). Protein bands transferred to the PVDF membrane were detected on an X-ray film using a chemiluminescent substrate (catalog No. 34577, Thermo Scientific, Rockford, IL, USA). […]
In general terms: A western blot detects proteins with antibodies after separation by electrophoresis.

The test system of another data set is PI3 kinase 100α. The data set is described as follows: Western blotting, PI3 kinase 100α level in 3T3-L1 adipocytes. Particulars: DHMBA 10 μM, day 2 to 4 of differentiation; FIG. 7. As for the experimental part:
as §1, §2

Data set [2] concerns 3T3-L1 preadipocytes. The data set is described as follows: Cell death of sub-confluent 3T3-L1 preadipocytes (cell count). Particulars: sub-confluent cells cultured another two days; DHMBA 0.1-1000 μM tested, effect at 1000 μM; FIG. 2C. As for the experimental part: In an experiment to measure cell death, 3T3-L1 preadipocytes (1×10^5/ml per well of a 24-well plate) were cultured for three days in a DMEM culture fluid containing 10% BCS and 1% P/S. The cells that reached sub-confluence were cultured for another 48 hours in the presence of a vehicle (1% ethanol as the final concentration) or DHMBA (0.1, 1, 10, 100, or 1000 μM) to examine the variation in the number of cells.
After the culture, adhering cells were separated from each well by adding an aseptic solution containing 0.05% trypsin and EDTA (0.1 ml per well) in PBS (Thermo Fisher Scientific, Waltham, MA, USA) not containing Ca^2+/Mg^2+ and incubating the cells for two minutes. Afterward, 0.9 ml of DMEM containing 10% FBS was added to each well to prepare cell suspensions. In order to measure the number of living cells, a medium (0.1 ml) containing suspension cells was mixed with 0.1 ml of 0.5% trypan blue staining solution. The living cells were counted under a microscope (Olympus MTV-3) using a cell counter (Line Seiki H-102P, Tokyo, Japan) and a hemocytometer (Sigma-Aldrich, St. Louis, Missouri). Two counts were averaged in each measurement. The number of cells was shown as the number per well of a culture plate.

A further data set relates to phosphorylated MAPK. Kind of data set: Western blotting, phosphorylated MAPK level in 3T3-L1 adipocytes. Particulars: DHMBA 10 μM, day 2 to 4 of differentiation; FIG. 7. As to the method:
as §1, §2

A further data set has as its system NF-κB p65. Kind of data set: Western blotting, NF-κB p65 level in 3T3-L1 adipocytes. Particulars: DHMBA 10 μM, day 2 to 4 of differentiation; FIG. 7. As to the method:
as §1, §2

In a further data set the test system is mTOR. Kind of data set: Western blotting, mTOR level in 3T3-L1 adipocytes. Particulars: DHMBA 10 μM, day 2 to 4 of differentiation; FIG. 7. As for the experimental part:
as §1, §2

Consider `COc1c(O)cc(CO)cc1O` [DHMBA, 3,5-dihydroxy-4-methoxybenzyl alcohol], for which, in the data set on 3T3-L1 preadipocytes [1] (culture fluid containing insulin (10 μg/ml), another two days, FIG. 3C), the “Number of cells, differentiation day 2 to 4” value is on record as “not varied”. Also, the “Number of cells, differentiation day 0 to 2” value in the data set on 3T3-L1 preadipocytes [1] (differentiation-inducing culture fluid (IBMX, dexamethasone, insulin), two days, FIG. 3B) is “not varied”. The MAPK protein level entry with MAPK is listed as “reduction”. The “PI3 kinase 100α protein level” value in the data set on PI3 kinase 100α is recorded as “reduction”. Also, in the data set on 3T3-L1 preadipocytes [2], the “Cell death (number of cells)” value is listed as “reduced”. For the same compound, the “Phosphorylated MAPK protein level” value in the data set on phosphorylated MAPK was “reduction”. Further, the “NF-κB p65 protein level” value in the data set with NF-κB p65 is “reduced”. Also, the mTOR protein level result in the data set with mTOR is “reduction”.
